According to US20240209456A1, “METHODS AND COMPOSITIONS RELATED TO CELL-CYCLE RNA's” (BETH ISRAEL DEACONESS MEDICAL CENTER, priority 2021, published 2024):
*1 amine or outer side, *2 acyl side, *3 side chain or, on linkers, in order; H or OH if unused. Where a SMILES comes first, the peptide text is derived from it. Bridges are numbered along the chain shown (N, C = ends). Roman numbers before positions name the chains, in order. [ ]: non-standard residue; d: D form. Actinocin(9to1) = Cc1c2oc3c(C)ccc(C(=O)[*:1])c3nc-2c(C(=O)[*:2])c(N)c1=O; NMeV = CN[C@H](C(=O)O)C(C)C; Sar = CNCC(=O)O

System: HL-60 cells
Experiment: nasRNA-seq, genome wide transcription inhibition upon DRB and ActD treatment
Format: cell-based, human
Settings: HL-60 released from double thymidine block, 2 hr, DRB 200 μM, ActD 0.8 μM; for average gene expression reduction: vs DMSO
Description: Nascent RNA/DNA capture was performed using Click-iT Nascent RNA Capture Kit (ThermoFisher) according to the manufacturer's instructions with minor modifications. Briefly, 1. Labeling the cells with EU/EdU. 200 mM EU or 30 mM EdU stock solutions were added to the cells, to a final concentration 0.5 mM or 30 μM, respectively. 2. Incubation. The cells were incubated for 1 or 2 hours. 3. RNA/DNA isolation. The cells were harvested and the RNA/DNA were isolated and dissolved in 14 μL of H2O. 4. Biotinylation of RNA/DNA by Click reaction. Click-iT reaction cocktail (50 μL per reaction) was prepared accordingly to manufacturer's instructions: a mixture containing 1× Click-iT EU buffer; 2 mM CuSO4; 1 mM Biotin azide; 13.25 μL of the isolated RNA; 10 mM Click-iT reaction buffer additive 1; 12 mM Click-iT reaction buffer additive 2 was prepared. After adding each component, the reaction cocktail was gently mixed by vortexing. The addition of the Click-iT reaction buffer additive 1 stock initiates the click reaction between the EU-RNA/EdU-DNA and biotin azide. Afterwards the Click-iT® reaction buffer additive 2 is added and incubated for 30 minutes with gentle vortexing. 5. RNA/DNA precipitation. 1 μL of ULTRAPURE™ Glycogen, 55 μL of 7 M ammonium acetate, and 750 μL of chilled 100% ethanol were added to the click reaction, incubated at −70° C. for at least 30 minutes and after centrifugation the pellet was dissolved in 125 μL of H2O. 6. Binding biotinylated RNA/DNA to Dynabeads® MYONE™ Streptavidin Ti magnetic beads. The RNA/DNA binding reaction mixture included: 125 μL 2×Click-iT RNA binding buffer; 2 μL Ribonuclease Inhibitor or 2 μL of water for DNA; 125 μL of the isolated biotinylated RNA/DNA. The RNA binding reaction mixture was heated at 68-70° C. for 5 minutes and 50 μL of bead suspension added into the heated RNA binding reaction mixture. The tube containing the RNA/DNA binding reaction was incubated at r.t. for 30 min while gently vortexing to prevent the beads from settling. The beads were immobilized using the magnet and washed 5 times with 500 μL of Click-iT® reaction wash buffer 1 and 5 times with 500 μL of Click-iT® reaction wash buffer 2. Finally, the beads were resuspended in 50 μL of Click-iT reaction wash buffer 2 and the captured RNA immediately processed to cDNA synthesis. The captured DNA was released into 50 μL of boiling water and used in qPCR analyses.
Double Thymidine block (early S-phase block) was carried out as described. […] Synchrony was monitored by flow cytometry analysis of propidium iodide-stained cells using a LSRII flow cytometer (BD Biosciences) at the Harvard Stem Cell Institute/Beth Israel Deaconess Center flow cytometry facility. […]

Compound | gene expression reduction ratio across distributions (treated/DMSO) | average gene expression reduction [%]
Cc1c2oc3c(C)ccc(C(=O)N[C@@H]4C(=O)N[C@H](C(C)C)C(=O)N5CCC[C@H]5C(=O)N(C)CC(=O)N(C)[C@@H](C(C)C)C(=O)O[C@@H]4C)c3nc-2c(C(=O)N[C@@H]2C(=O)N[C@H](C(C)C)C(=O)N3CCC[C@H]3C(=O)N(C)CC(=O)N(C)[C@@H](C(C)C)C(=O)O[C@@H]2C)c(N)c1=O [ActD, Actinomycin D] (I: T[dV]P[Sar][NMeV] / II: T[dV]P[Sar][NMeV]; ester I:1-I:C, II:1-II:C; linker I:N-II:N via Actinocin(9to1)) | 0.21 | 79
OC[C@H]1O[C@@H](n2cnc3cc(Cl)c(Cl)cc32)[C@H](O)[C@@H]1O [DRB, 5,6-Dichlorobenzimidazole 1-β-D-ribofuranoside] | 0.45 | 55
